We go through seven compounds from US11021507B2, “Myricetin derivative and preparing method thereof, and application of same for treating colitis, preventing and treating colitis tumorigenesis, and treating colorectal cancer” (MARINE BIOMEDICAL RESEARCH INSTITUTE OF QINGDAO CO., LTD., priority 2016, dated 2021).

Converted amounts (≈) assume the structure as drawn.

For data set [1], the system named is dextran sulfate sodium (DSS)-induced chronic colitis in mice. As to the kind of experiment: DSS-induced chronic colitis model in mice. It counts as in vivo, C57BL/6 mice. The settings on record: for Diarrhea (general symptoms) during drug administration / Number of mice with no obvious diarrhea: 100 mg/kg daily, six mice per group; for Diarrhea (general symptoms) during drug administration: 18 days; for Grading scores for chronic inflammation of colon: number of mice colons with score + / Grading scores for chronic inflammation of colon: number of mice colons with score ++ / Grading scores for chronic inflammation of colon: number of mice colons with score 0: 3 mice examined per group, HE staining; for Grading scores for chronic inflammation of colon: number of mice colons with score +: + = slight inflammatory cell infiltration; for Grading scores for chronic inflammation of colon: number of mice colons with score ++: ++ = moderate inflammatory cell infiltration; for Grading scores for chronic inflammation of colon: number of mice colons with score 0: score 0 = no obvious inflammatory cell infiltration; for Colon length compared with model group / Body weight compared with model group: P<0.05; for Body weight compared with model group: FIG. 11. From the text: Determination of the therapeutic effects of myricetin derivative M5, M6 and M7 on dextran sulfate sodium (DSS)-induced chronic colitis in mice
1. Compounds tested and control drugs: myricetin derivative M5, M6 and M7, positive control drug-sulfasalazine (SASP, from Sigma); control drug-myricetin;
Experimental animals: C57BL/6 mice, 20 to 22 g, both male and female, SPF grade provided by Charles River Laboratories, Beijing.
2. DSS-induced chronic colitis model in mice: 36 C57BL/6 mice were randomly divided into six groups, with six mice in each group. DSS (0.5 g) was weighed and dissolved in 50 ml of purified water, for 6 mice to drink in one day. The DSS water was made freshly and was provided at fixed time on a daily basis for 7 days successively, which was then replaced by freshly-made purified drinking water for the next successive 14 days. The same procedure was repeated successively for 3 times. Each group of mice was given the same treatment for the preparation of chronic colitis model. 3. Drug preparation method: 3.1 Solvent control group: 0.5 mL of DMSO was added to 10 mL of 0.5% CMC-Na. 3.2 Myricetin derivative M5 and M6 tested: 100 mg of M5 and M6 each was weighed and dissolved in 0.5 ml of DMSO, and diluted to 10 mL with 0.5% CMC-Na. 3.3 Myricetin derivative M7 tested: 100 mg of M7 was weighed and dissolved in 10 mL of 5% sodium bicarbonate injection. 3.4 Myricetin control: 100 mg of myricetin was weighed and dissolved in 10 mL of 0.5% CMC-Na. 3.5 Sulfasalazine (SASP): 100 mg of SASP was weighed and dissolved in 10 mL of saline. 4. Administration method: the body weight of mice was weighed daily, and drugs were administered 0.01 ml/g (100 mg/kg) consecutively for 18 days. 5. Animal observation and treatment method: body weight, diet, diarrhea (or bloody stools) etc. were observed daily. At the end of the experiment, mice were sacrificed for dissection. The colon and small intestine were dissected out for visual observation and pathological analysis. Pathological examination methods and evaluation criteria: the colons of each group were fixed with 10% formalin followed by routine paraffin embedding, sectioning and HE staining. The degree of colonic inflammation in each group was evaluated under microscope. According to the degree of inflammatory cell infiltration in colonic lamina propria, the following grading criteria were established: level 0, no obvious inflammatory cell infiltration; +(level 1), slight inflammatory cell infiltration; ++(level 2), moderate inflammatory cell infiltration; +++(level 3), severe inflammatory cell infiltration and may be accompanied by necrosis or loss of mucosal cells.
Determination of Therapeutic Effects of Myricetin Derivative M13 and M14 on DSS-Induced Chronic Colitis in Mice
See Example 8 for the experimental method.

Data set [2] relates to mouse peritoneal macrophage RAW264.7. Briefly: Cytotoxicity / cell proliferation in RAW264.7 macrophages. The data set is classed as cell-based. The settings on record: incubated 24 hours; dose increased to 20 μM. From the text: Therefore, this series of compounds may be considered suitable for drug development for treating chronic colitis and inflammatory bowel disease.

A short description of data set [3]: Water solubility test (equilibrium solubility in pure water, LC/MS). The data set is classed as physicochemical. The settings on record: 37° C.; for solubility at 24 h: ultrapure water, thermodynamic from solid. The method, then: Water solubility test for myricetin derivative M5, M6 and M10
Instrument: Waters Alliance e2695 LC/MS; chromatographic column: Waters×Bridge C18 4.6×150 mm.
Appropriate amount of said myricetin derivative was weighed and dissolved in methanol to prepare a solution of 1 mg/ml respectively, which was diluted with methanol to different concentrations of working solution as standard samples for testing.
2. 1 mL of ultrapure water was added into a 1.5 ml transparent EP tube. Appropriate amount of said myricetin derivative was each added into a transparent EP tube, followed by vortex mixation and ultrasonication till the drug was no longer dissolved (the solution appeared cloudy or had suspended particles). The mixture was then placed in an incubating oscillator for shaking at the temperature of (37±1) ° C., 100 r/min, for 24 hours, to achieve a sufficient solubility balance. 24 hours later, the saturated solution was taken out for centrifugation at 3000 r/min for 15 min. The supernatant was immediately filtered through a 0.45 μm microporous membrane, and the initial part of the filtrate was discarded. Samples were added for chromatography. The peak area was measured and the equilibrium solubility of each compound in pure water was calculated using a standard curve.

Data set [4] deals with azomethane (AOM)/dextran sulfate sodium (DSS)-induced chronic ulcerative colitis and inflammation-associated tumorigenesis. Briefly: AOM/DSS-induced chronic ulcerative colitis and inflammation-associated tumorigenesis in mice. The data set is classed as in vivo, C57BL/6 mice. The settings on record: 100 mg/kg aspirin or myricetin; M10 25-100 mg/kg; 12 weeks; FIG. 8. From the text: Determination of therapeutic effect of myricetin derivative M10 on azomethane (AOM)/dextran sulfate sodium (DSS)-induced chronic ulcerative colitis and inflammation-associated tumorigenesis.
Compound tested and control drugs: myricetin derivative M10, control compound myricetin, aspirin (Sigma).
Experimental animals: C57BL/6 mice, 20 to 22 g, both male and female, SPF grade provided by Beijing Vital Lihua Experimental Animal Company, and mice were fed with standard animal feed.
Animal models of AOM/DSS-induced chronic colitis and inflammation-associated tumorigenesis: 48 C57BL/6 mice were randomly divided into six groups with eight mice in each group, including model group, for which 0.5% CMC-Na was administered intragastrically every day; aspirin group, for which 100 mg/kg of aspirin (dissolved in 0.5% CMC-Na) was administered intragastrically; myricetin control group, for which 100 mg/kg of myricetin (dissolved in 0.5% CMCNa) was administered intragastrically; M10 high dose group, for which 100 mg/kg of M10 (dissolved in pure water) was administered intragastrically; M10 medium dose group, for which 50 mg/kg of M10 (dissolved in pure water) was administered intragastrically; M10 low dose group, for which 25 mg/kg of M10 (dissolved in pure water) was administered intragastrically.
Preparation of chronic ulcerative colitis mice model: said groups of mice were intraperitoneally injected with 10 mg/kg of azoxymethane (AOM) on day one. Purified drinking water containing 2% dextran sulfate sodium (DSS) was freshly made and provided on day one and on the next six consecutive days, the replaced by purified drinking water for the next seven consecutive days. The above procedure was then repeated for 3 more times.
M10-treated group: 200 mg of M10 was weighed and dissolved in 10 mL of 0.5% CMC-Na solution (20 mg/mL), and consecutively diluted 2 times and 5 times for future use. 0.2 mL of each prepared solutions was given intragastrically to mice (the body weight was assumed as 20 g per mouse), namely divided into high, medium or small dose groups. Myricetin control group: 200 mg of myricetin was weighed and dissolved in 10 mL of 0.5% CMC-Na. Aspirin-treated group: 200 mg of aspirin was weighed and dissolved in 10 mL of 0.5% CMC-Na. Administration method: The body weight of mice was measured daily, and drugs were administered at 0.01 mL/g (100 mg/kg) per day for 12 consecutive weeks. 4. Animal observation and treatment methods: weight, diet, diarrhea (or bloody stools) etc. were observed daily.
At the end of the experiment, mice were sacrificed. The colon and small intestine were dissected out for visual observation and pathological analysis. Pathological examination methods and evaluation criteria: the mice colons of each group were fixed with 10% formalin, followed by routine paraffin embedding, sectioning and HE staining. The developmental degree of colonic inflammation and colon cancer in each group of mice was evaluated under microscopic observation.

Where [5] appears, read: 100 mg/kg for 18 days, end of experiment, FIG. 2.
Where [6] appears, read: Example 17, method of Example 8.
Setting [7] is: Example 17, method of Example 8, FIG. 12.

With `CC(=O)OC[C@H]1O[C@@H](O[C@H]2[C@H](OC(C)=O)[C@@H](OC(C)=O)[C@H](Oc3c(-c4cc(OCc5ccccc5)c(OCc5ccccc5)c(OCc5ccccc5)c4)oc4cc(OCc5ccccc5)cc(O)c4c3=O)O[C@@H]2COC(C)=O)[C@H](OC(C)=O)[C@@H](OC(C)=O)[C@H]1OC(C)=O` [M5], the “Diarrhea (general symptoms) during drug administration” value in data set [1] is on record as “no significant reduction in diarrhea”. In data set [1] (100 mg/kg for 18 days), the “Grading scores for chronic inflammation of colon: number of mice colons with score +” value was 1 and the “Grading scores for chronic inflammation of colon: number of mice colons with score ++” value is given as 2. The “Inhibitory effect on cell proliferation (cytotoxic effect)” value (from here on “Inhibitory effect on cell proliferation”) in data set [2] is listed as “no significant inhibitory effect”. The “Solubility (in words)” value in data set [3] (24 h, per Table 2) was “very low”. Also, in data set [3], the solubility at 24 h was below 0.1 µg/mL.

Take `CC(=O)OC[C@H]1O[C@@H](O[C@H]2[C@H](OC(C)=O)[C@@H](OC(C)=O)[C@H](Oc3c(-c4cc(O)c(O)c(O)c4)oc4cc(O)cc(O)c4c3=O)O[C@@H]2COC(C)=O)[C@H](OC(C)=O)[C@@H](OC(C)=O)[C@H]1OC(C)=O` [M6]: in data set [1], the “Diarrhea (general symptoms) during drug administration” value is on record as “slight reduction in diarrhea” and the “Number of mice with no obvious diarrhea” value is reported as 1-2 mice. For the same compound, in data set [1] (100 mg/kg for 18 days), the “Grading scores for chronic inflammation of colon: number of mice colons with score +” value turned out to be 2 and the “Grading scores for chronic inflammation of colon: number of mice colons with score 0” value came out at 1. Besides, the “Colon length compared with model group” value in data set [1] (setting [5]) was “significantly longer”. Moreover, the “Inhibitory effect on cell proliferation” value in data set [2] is reported as “no significant inhibitory effect”. The compound further had a solubility at 24 h in data set [3] of 1.4 µg/mL (≈ 1.49 µM).

Turning to `O=C(O)c1cc(/N=N/c2ccc(S(=O)(=O)Nc3ccccn3)cc2)ccc1O` [SASP, sulfasalazine, reference compound], in data set [1], the “Diarrhea (general symptoms) during drug administration” value was “slight reduction in diarrhea”. Also, in data set [1] (100 mg/kg for 18 days), the “Grading scores for chronic inflammation of colon: number of mice colons with score +” value came to 1 and the “Grading scores for chronic inflammation of colon: number of mice colons with score ++” value was determined as 2.

For `O=c1c(O[C@@H]2O[C@H](CO[C@@H]3O[C@H](CO)[C@@H](O)[C@H](O)[C@@H]3O)[C@H](O)[C@H](O)[C@H]2O)c(-c2cc(O)c(O)c(O)c2)oc2cc(O)cc(O)c12` [M14], the “Body weight compared with model group” value in data set [1] (setting [6]) was “significantly increased”. Further, the “Colon length compared with model group” value in data set [1] (setting [7]) was “significantly increased”.

On to `O=c1c(O[C@@H]2O[C@H](CO[C@@H]3O[C@H](CO)[C@@H](O)[C@H]3O)[C@H](O)[C@H](O)[C@H]2O)c(-c2cc(O)c(O)c(O)c2)oc2cc(O)cc(O)c12` [M13], for which the “Body weight compared with model group” value in data set [1] (setting [6]) is reported as “significantly increased”. Further, the “Colon length compared with model group” value in data set [1] (setting [7]) is on record as “significantly increased”.

As to `CC(=O)Oc1ccccc1C(=O)O` [aspirin, reference compound], the “Pathological analysis of colon tissue (colon cancer)” value in data set [4] is on record as “alleviated to some extent”.

`O=c1c(O[C@@H]2O[C@H](CO)[C@@H](O[C@@H]3O[C@H](CO)[C@H](O)[C@H](O)[C@H]3O)[C@H](O)[C@H]2O)c(-c2cc(O)c(O)c(O)c2)oc2cc(O)cc(O)c12` [M7]: in data set [1], the “Diarrhea (general symptoms) during drug administration” value is given as “significant reduction in diarrhea” and the “Number of mice with no obvious diarrhea” value stood at 4 mice. Also, the “Grading scores for chronic inflammation of colon: number of mice colons with score 0” value in data set [1] (100 mg/kg for 18 days) turned out to be 3. For the same compound, the “Degree of chronic colonic inflammation (pathological examination)” value in data set [1] (100 mg/kg for 18 days, FIG. 3 and Table 1) was “significantly alleviated”. Further, in data set [1] (setting [5]), the “Colon length compared with model group” value is “significantly longer”. Moreover, in data set [2], the “Inhibitory effect on cell proliferation” value is “no significant inhibitory effect”.

In general, solubility refers to the concentration that dissolves in the medium under given conditions. Low values mean little dissolved substance, high ones much dissolved substance.
